The values below come from publication PMC8752827, “Towards a generic prototyping approach for therapeutically-relevant peptides and proteins in a cell-free translation system” (Nature Communications, 2022).

The target of one experiment is T1, Trypsin (Bos taurus, UniProt P00760).
T1 construct: gene PRSS1
T1 sequence (P00760 24-246): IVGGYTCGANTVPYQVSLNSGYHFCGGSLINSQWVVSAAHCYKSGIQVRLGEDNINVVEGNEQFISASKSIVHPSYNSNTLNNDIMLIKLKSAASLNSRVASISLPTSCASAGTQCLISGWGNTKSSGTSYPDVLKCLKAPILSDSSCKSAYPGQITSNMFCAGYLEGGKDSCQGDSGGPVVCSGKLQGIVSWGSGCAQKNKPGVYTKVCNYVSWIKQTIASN
In words: Trypsin-inhibitory assay. The experiment is classed as biochemical. The note with it: for HillSlope / LogEC50: trypsin inhibition curve, nonlinear fit, variable slope, best-fit value. On the procedure:
Trypsin was freshly prepared at 400 pM in the assay buffer containing 0.1 M NaCl, 10 mM CaCl2, 0.005% Triton X-100, 0.1 M Tris-HCl pH 8.0. […] After incubation residual trypsin activity was measured by adding the quenched fluorescent peptide substrate Boc-Q-A-R- 7-amido-4-methyl-coumarin to a final concentration of 10 μM. The fluorescence increase upon the release of 7-amido-4-methyl-coumarin was monitored on Infinite M1000 Pro plate reader (Tecan) every 30 s using excitation and emission wavelengths of 360 and 460 nm, respectively.

The subject of experiment [1] is peptidyl-prolyl isomerase. The note with it: 10 μM inhibitor in Ec CFS translation reaction; Supplementary Fig. 19. The method, then: For details, refer to a procedure overview in the Supplementary Methods. Briefly, E. coli S30 extract was prepared as described by Schwarz et al.[68] with minor modifications. Briefly, cells were cultivated in 5–10 L of filter-sterilized TBGG media (tryptone 12 g/L, yeast extract 24 g/L, glycerol 8 mL/L, glucose 1 g/L, KH2PO4 2.31 g/L, K2HPO4 2.54 g/L) to OD 3.5, pre-chilled with 5 × 200 or 10 × 200 mL of –80 °C pre-frozen packs of LB broth and spun at 2.5 kg for 15 min. The cell pellet from the final wash was resuspended in 200 % (vol/wt) of S30B buffer and disrupted using fluidic disruption (Constant Systems, continuous flow mode) at 20 kpsi at 4 °C. Cell homogenate was cleared by two consecutive 30 min centrifugation steps at 30 kg at 4 °C while collecting the top ¾ of supernatant every time. The final supernatant was adjusted to 0.4 M with 5 M NaCl followed by 45 min incubation at 42 °C in a water bath. […]
Fluorescence DHFR activity assay was performed by monitoring the change in NADPH fluorescence (Ex 340 nm, […]) upon its conversion to NADP^+ in 200 µL of buffer containing 20 mM Tris-HCl pH 7.5, 100 mM NaCl, 1 mM Mg(OAc)2, 0.012% Tween 20, 2.5 mM DTT in a black 96-well plate (Corning). […] Fluorescence changes were recorded for 4 h. […]

Experiment [2] concerns Drosophila melanogaster fruit flies. Nature of the experiment: Insecticidal activity assay (microinjection, LD50). The experiment is classed as in vivo. The settings on record: microinjection of 50 nL into female Drosophila melanogaster, lethal effects at 24 h; thrombin-cleaved cell-free Dc1a. The method, then:
The insecticidal activity of the Dc1a and its cell-free produced analog was tested by microinjection in female Drosophila melanogaster fruit flies aged 3–4 days with an average weight of 0.8–0.9 mg according to the previously described method. Briefly, the C-terminally unprocessed Dc1a (Dc1a-GTGSGG-[…]) was dissolved in water for injection, and water was used as the respective negative control. The thrombin-cleaved Dc1a sample (Dc1a-GTGSGG-R) contained thrombin and the respective amount of thrombin was added to the control sample. The injection volume was 50 nL and three repeats of seven doses (each in n = 8 fruit flies) were used for each Dc1a analog. Female Drosophila were cooled on ice before injection. […] The number of control flies affected at the respective post-injection time was subtracted from the number of affected flies.

Entries after “also recorded” stand apart in the source; their conditions may differ. Where a SMILES comes first, the peptide text is derived from it. Bridges are numbered along the chain shown (N, C = ends). Where no end group is shown, it is not given here.

One may read the EC50 as the concentration at which the effect is half-maximal. “ILKKCRRDSDCPGACICRGNGYCGSGSDGGVCPKGAGRGSIDTWV (disulfide 5-17, 11-23, 15-32) [prmMcoTI-RGS]” returned an EC50 on Trypsin of 167 pM.

As to `CO[C@H]1C[C@@H]2CC[C@@H](C)[C@@](O)(O2)C(=O)C(=O)N2CCCC[C@H]2C(=O)O[C@H]([C@H](C)C[C@@H]2CC[C@@H](O)[C@H](OC)C2)CC(=O)[C@H](C)/C=C(\C)[C@@H](O)[C@@H](OC)C(=O)[C@H](C)C[C@H](C)/C=C/C=C/C=C/1C` [rapamycin, Rapamycin], the “effect on the gain of hDHFR activity by exposure of GFP-hDHFR to lysate (post-translational capture)” value in experiment [1] is “eliminated the beneficial effect of protein exposure to lysate in Ec CFS”.

As to `CC[C@H](C)[C@@H]1NC(=O)[C@@H]2CCCN2C(=O)[C@@H]2CCCN2C(=O)[C@H]([C@@H](C)CC)NC(=O)[C@H](CO)NC(=O)[C@H](CCCCN)NC(=O)[C@H]([C@@H](C)O)NC(=O)[C@@H]2CSSC[C@H](NC1=O)C(=O)N[C@@H](Cc1ccccc1)C(=O)N1CCC[C@H]1C(=O)N[C@@H](CC(=O)O)C(=O)NCC(=O)N[C@@H](CCCNC(=N)N)C(=O)N2` [Chem_cyc-SFTI], on Trypsin, the HillSlope was -1.291 and the LogEC50 is 2.234 log10 [SFTI], pM.

`CC[C@H](C)[C@H](NC(=O)[C@@H]1CCCN1C(=O)[C@@H]1CCCN1C(=O)[C@@H](NC(=O)[C@@H](N)CO)[C@@H](C)CC)C(=O)N[C@H]1CSSC[C@@H](C(=O)N[C@H](C(=O)N[C@@H](CCCCN)C(=O)O)[C@@H](C)O)NC(=O)[C@H](CCC(N)=O)NC(=O)CNC(=O)[C@H](CC(=O)O)NC(=O)[C@@H]2CCCN2C(=O)[C@H](Cc2ccccc2)NC1=O` [Cell-free_oMut-SFTI] (H-SIPPICFPDGQCTK-OH; disulfide 6-12; C-terminus assumed): at Trypsin, the HillSlope is recorded as -1.405 and the LogEC50 is 2.696 log10 [SFTI], pM.

For “GGVCPKILKKCRRDSDCPGACICRGNGYCGSGSDGLPRGSIDTWV (disulfide 4-21, 11-23, 17-29) [wtMCoTI-RGS]”, the EC50 on Trypsin was 608 pM. The “trypsin-inhibitory activity / Ki for trypsin, compared in words” value at Trypsin (trypsin-inhibitory assay, comparison with the named counterpart) was “almost fourfold higher Ki for trypsin”.

As for “Dc1a-GTGSGG-R (bicyclic or more) [cell-free produced Dc1a harboring GTGSGGR on its C-terminus after thrombin cleavage]”, the “insecticidal activity, in words” value in experiment [2] is on record as “showed the expected biological activity; also recorded: insecticidal activity similar to the synthetic wild-type toxin”.
